Source: patent US11628133B2, “Uses of the peptide of sequence His-D-Trp-Ala-Trp-d-Phe-Lys-NH2 for reducing or delaying the appearance of cell senescence and signs of skin aging” (ISP INVESTMENTS LLC, priority 2015, dated 2023)
Where no end group is shown, it is not given here. [ ]: non-standard residue; d: D form.

Experiments:
[1] = tested on: prolidase; test: Activity of prolidase in human fibroblasts (Gly-Pro substrate, Chinard's reagent); type: cell-based; details: untreated = 100
Experimental: Protocol: Cultured human fibroblasts were treated with hexapeptide-2 in a concentration of 0.5 and 1 μM after dilution in a culture medium, for 24 hours (2 applications per day). At the same time, fibroblasts were treated with an activator and an inhibitor of prolidase: retinoic acid (Sigma, Ref. R2625) and Cpz-Pro (Bachem, Ref. 4001343). Next, the cells were detached from the dish with the aid of a 150 mM NaCl solution. After having recovered the cellular pellet and activating the prolidase with a solution containing 2 mM MnCl2 for 2 hours at 37° C., the prolidase substrate was added: 47 mM of Glycine-Proline (Sigma, Ref. G3002) for 1 hour at 37° C. Next, the amount of proline contained in each sample was determined at a wavelength of 515 nm using Chinard's reagent. At the same time, a proline concentration range was produced in order to establish a calibration curve. The amount of protein was determined using the BCA protein assay kit (Thermo Scientific, Ref. 23225), which enabled the ratio of proline to the number of proteins in each sample to be recorded.

[2] = tested on: senescent human fibroblasts by replicative senescence; test: Activity of β-galactosidase in senescent human fibroblasts by replicative senescence (short-term treatment); type: cell-based; details: 1 μM, 48 hours, general over passes
Experimental: Protocol: Human fibroblasts were cultured in a specific medium and maintained under long-term culture treatment (for more than 28 passes, i.e. approximately 3 months). A portion of the cells was frozen in each pass. Next, key passes were selected: passes 4, 12, 16, 20 and 28. After freezing, the fibroblasts were treated with 1 μM hexapeptide-2 in culture medium, for 48 hours (2 applications per day). The senescent phenotype of the fibroblasts treated or not treated with 1 μM hexapeptide-2 was evaluated by assaying the activity of the β-galactosidase.
(§1) To this end, the cells were rinsed and fixed in a fixing buffer (0.2% glutaraldehyde, 2% formaldehyde). The cells were then incubated, at 37° C. without CO2 for 24 hours, with a solution of 1 mg/mL X-Gal in 40 mM of citric acid/phosphate (pH 6), 5 mM K3FeCN6, 5 mM K4FeCN6, 150 mM NaCl and 2 mM MgCl2. The cells were then examined under white light with a microscope (Nikon Eclipse E600 microscope).

[3] = tested on: collagen I; test: Expression of intracellular collagen I in human fibroblasts by flow cytometry; type: cell-based; details: untreated = 100
Experimental: Protocol: Cultured human fibroblasts were treated with hexapeptide-2 in a concentration of 0.5 and 1 μM after dilution in a culture medium, for 48 hours (2 applications per day). At the same time, fibroblasts were treated with an activator for collagen I: TGF-β (R&D system, Ref. 240B). The fibroblasts were trypsinated and the cellular pellet was recovered. The cells were then fixed with cold methanol for 15 minutes at 4° C. Immunolabelling was carried out with the aid of a mouse monoclonal antibody specific for collagen I (Millipore, Ref: anti-Collagen Type I, Clone: 5D8-G9) coupled with a fluorochrome. Next, 10 000 cells were analysed by flow cytometry (Guava EasyCyte) in order to determine the amount of fluorescence in each of them.

[4] = tested on: collagen; details: concentrations of 1 μM, 10 μM and 100 μM; cited from earlier work
[5] = tested on: human fibroblasts made senescent by transfection with the siRNA FOXO3a; test: Activity of β-galactosidase in human fibroblasts made senescent by transfection with the siRNA FOXO3a; type: cell-based; details: 1 μM, 48 hours, siRNA FOXO3a transfected cells; results not shown
Experimental: Protocol: Cultured human fibroblasts were treated or not treated with a specific siRNA of FOXO3a (Invitrogen, Ref. HSS177176) in a final concentration of 25 nM using the technique of transfection by Lipofectamine™ RNAiMAX (Invitrogen, Ref 56531) and treated or not treated with hexapeptide-2 in a final concentration of 1 μM in culture medium, for 48 hours (2 applications per day).
The cells were rinsed and fixed in a fixing buffer (0.2% glutaraldehyde, 2% formaldehyde). The cells were then incubated at 37° C. without CO2 for 24 hours, with a solution of 1 mg/mL X-Gal in 40 mM of citric acid/phosphate (pH 6), 5 mM K3FeCN6, 5 mM K4FeCN6, 150 mM NaCl and 2 mM MgCl2. The cells were then examined under white light with a microscope (Nikon Eclipse E600 microscope).

[6] = tested on: prolidase; test: Expression of prolidase in human fibroblasts (immunofluorescence); type: cell-based; details: 24 hours, 2 applications per day, untreated = 100
Experimental: Protocol: Cultured human fibroblasts were treated with hexapeptide-2 in a final concentration of 0.5 and 1 μM after dilution in a culture medium, for 24 hours (2 applications per day). The cells were then washed, fixed with cold methanol for 4 minutes at 4° C. The cells were incubated in the presence of a mouse monoclonal antibody specific for prolidase (LifeSpan BioSciences, Ref. LS-C115644), then of an anti-mouse secondary antibody coupled to a fluorochrome (Invitrogen, Ref. A21202). The cells were then examined under an epifluorescence microscope (Zeiss Axiovert 200M microscope). Quantification of the fluorescence was carried out from the photographs obtained.

[7] = tested on: collagen III; test: Expression of collagen III in human skin in ex vivo culture; type: cell-based; details: 48 hours, untreated = 100
Experimental: (§2) Protocol: Samples of human skin were cultured at the air/liquid interface. Hexapeptide-2 was applied topically to the samples in concentrations of 0.5 and 1 μM after dilution in a culture medium, in an amount of 2 applications per day, then the samples were incubated for 48 hours at 37° C.
(§3) These skin samples were subsequently fixed with formaldehyde then included into paraffin. 4 μm sections were then produced.
(§4) Labelling of the collagens I and III was then carried out after demasking specific sites by microwave incubation then by treatment with trypsin. The immunolabelling was carried out with the aid of a rabbit polyclonal antibody specific for collagen I (Rockland, Ref. 600-401-103-0.5), a rabbit polyclonal antibody specific for collagen III (Rockland, Ref 600-401-105-0.5), then an anti-rabbit secondary antibody coupled to a fluorochrome (Invitrogen, Ref. A21206). The cells were then examined under an epifluorescence microscope (Zeiss Axiovert 200M microscope). A quantification of the fluorescence from the photographs obtained was carried out.

[8] = tested on: human fibroblasts made senescent by replicative senescence; test: Activity of β-galactosidase in human fibroblasts made senescent by replicative senescence (long-term treatment); type: cell-based; details: 1 μM daily, long-term (about 3 months), general over passes
Experimental: Protocol: Human fibroblasts were cultured in a specific medium and maintained under culture (for more than 27 passes) and treated or not treated with a daily application of hexapeptide-2 in a concentration of 1 μM in the culture medium, (i.e. 5 applications per week). A portion of the cells was frozen in each pass. Next, key passes were selected: passes 4, 12, 16, 20, 24 and 27. After freezing, the senescent phenotype of the fibroblasts treated or not treated with 1 μM hexapeptide-2 was evaluated by assaying the activity of β-galactosidase.
as §1

[9] = tested on: collagen I; test: Expression of collagen I in human fibroblasts made senescent by transfection with the siRNA FOXO3a; type: cell-based; details: 0.5 or 1 μM, 48 hours, siRNA FOXO3a transfected cells
Experimental: Protocol: Cultured human fibroblasts were treated or not treated with a specific siRNA of FOXO3a (Invitrogen, Ref. HSS177176) in a final concentration of 25 nM using the technique of transfection by Lipofectamine™ RNAiMAX (Invitrogen, Ref. 56531) and treated or not treated with hexapeptide-2 in a concentration of 0.5 or 1 μM in culture medium, for 48 hours (2 applications per day).
The fibroblasts were trypsinated and the cellular pellet was recovered. The cells were then fixed with cold methanol for 15 minutes at 4° C. Immunolabelling was carried out with the aid of a mouse monoclonal antibody specific for collagen I (Millipore, Ref. anti-Collagen Type I, Clone: 5D8-G9) coupled with a fluorochrome. Next, 10 000 cells were analysed using flow cytometry (Guava EasyCyte) in order to determine the level of fluorescence in each of them.

[10] = tested on: miRNA-29a 3p; test: Expression of miRNA-29a 3p in human fibroblasts from donors of different ages (qPCR); type: cell-based; details: overnight, concentration (0.5 or 1 μM) not stated
Experimental: Protocol: Human fibroblasts from 3 donors were treated with hexapeptide-2 in a concentration of 0.5 and 1 μM in culture medium overnight (1 application).
The miRNAs were extracted with the aid of an extraction kit (Ambion, Ref. AM1561), then reverse transcribed with a specific kit (Applied Biosystem, Ref 4374966). A real time PCR was carried out in a thermocycler using a TaqMan Gene Expression Assay specific for miRNA-29a 3p (Applied Biosystems, Ref 002112) and a TaqMan Gene Expression Assays specific for RNU44 used as the control endogen (Applied Biosystems, Ref. 001094). The relative quantification if the expression of miRNA-29a 3p was carried out by the comparative Ct method.

[11] = tested on: miRNA-29a 3p; test: Expression of miRNA-29a 3p in human fibroblasts made senescent by replicative senescence (long-term treatment); type: cell-based
Experimental: Protocol: Human fibroblasts were cultured in a specific medium and maintained under a long-term culture treatment (for more than 24 passes, i.e. approximately 3 months), treated or not treated by means of a daily application of hexapeptide-2 in a concentration of 1 μM in culture medium, (5 applications per week). For each pass, a portion of the cells was frozen. Next, three passes were selected: passes 4, 12 and 24.
The miRNAs were extracted with the aid of an extraction kit (Ambion, Ref AMI1561), then reverse transcribed with a specific kit (Applied Biosystems, Ref 4374966). A real-time PCR was carried out in a thermocycler with the aid of a TaqMan Gene Expression Assay specific for miRNA-29a 3p (Applied Biosystems, 002112) and a TaqMan Gene Expression Assay specific for RNU44 used as an endogenic control (Applied Biosystems, 001094). The relative quantification of the expression of miRNA-29a 3p was carried out using the comparative Ct method.

[12] = tested on: prolidase; test: Activity of prolidase in human fibroblasts made senescent by replicative senescence (long-term treatment); type: cell-based; details: 1 μM daily long-term
Experimental: Protocol: Human fibroblasts were cultured in a specific medium and maintained under long-term culture treatment (for more than 20 passes, i.e. approximately 3 months), treated or not treated with the aid of a daily application of hexapeptide-2 in a concentration of 1 μM in culture medium, (5 applications per week). A portion of the cells was frozen for each pass. Next, two passes were selected: passes 12 and 20.
To this end, the cells were detached from their support with a solution of 150 mM NaCl. After recovering the cellular pellet and activating the prolidase with a solution containing 2 mM of MnCl2 for 2 hours at 37° C., the substrate for the prolidase was added: 47 mM of Glycine-Proline (Sigma, Ref. G3002), for 1 hour at 37° C. Next, the proline content contained in each sample was determined at a wavelength of 515 nm using Chinard's reagent. At the same time, a concentration range for proline was produced in order to establish a calibration curve. The protein content was determined using the BCA protein assay kit (Thermo Scientific, Ref. 23225), in order to relate the proline content with the number of proteins in each sample.

[13] = tested on: collagen I; test: Expression of collagen I in human skin in ex vivo culture; type: cell-based; details: 48 hours, untreated = 100
Experimental: as §2, §3, §4

O=C(O)[C@@H]1CCCN1C(=O)OCc1ccccc1 [Cpz-Pro, reference compound]
Activity of prolidase (%) ([1]; 10 mM): 90%

CC1=C(/C=C/C(C)=C/C=C/C(C)=C/C(=O)O)C(C)(C)CCC1 [retinoic acid, reference compound]
Activity of prolidase (%) ([1]; 1 μM, 24 hours): 105%

His-D-Trp-Ala-Trp-D-Phe-Lys-NH2 (H[dW]AW[dF]K-NH2) [hexapeptide-2]
reduction in the activity of the β-galactosidase compared with untreated cells [2]: −31% | Expression of collagen I (%) ([3]; 0.5 μM, 48 hours): 120% | Expression of collagen I (%) ([3]; 1 μM, 48 hours): 145% | effect on the secretion of collagen by fibroblasts cultured in vitro [4]: no effect | activity of β-galactosidase linked to senescence (number of blue-stained cells) [5]: visible reduction in the activity of β-galactosidase | Expression of prolidase (intensity/area of cells (%)) ([6]; 0.5 μM): 118% | Expression of prolidase (intensity/area of cells (%)) ([6]; 1 μM): 128% | Expression of Collagen III (%) ([7]; 0.5 μM topical): 155% | Expression of Collagen III (%) ([7]; 1 μM topical): 155% | reduction in the activity of beta-galactosidase compared with untreated cells [8]: −22% | expression of collagen I in senescent cells [9]: smaller reduction in the expression of collagen I | reduction in the expression of miRNA-29a 3p ([10]; fibroblasts of donor one): −14% | reduction in the expression of miRNA-29a 3p ([10]; fibroblasts of donor three): −27% | reduction in the expression of miRNA-29a 3p ([10]; fibroblasts of donor two): −13% | Activity of prolidase (%) ([1]; 0.5 μM, 24 hours): 122% | Activity of prolidase (%) ([1]; 1 μM, 24 hours): 114% | effect on the expression of miRNA-29a 3p ([11]; pass 4, 1 μM daily long-term): no effect | reduction in the expression of miRNA-29a 3p ([11]; pass 12, 1 μM daily long-term): −16% | reduction in the expression of miRNA-29a 3p ([11]; pass 24, 1 μM daily long-term): −7% | restoration in the activity of prolidase compared with untreated control cells in the same pass ([12]; senescent cells (P20)): 20% | effect on activity of prolidase ([12]; young cells (P12)): little or no effect | Expression of collagen I (%) ([13]; 0.5 μM topical): 119% | Expression of collagen I (%) ([13]; 1 μM topical): 154%

TGF-β: activator for collagen I (R&D system, Ref. 240B)
Expression of collagen I (%) ([3]; 10 ng/ml): 182%
